According to patent US10287295B2, “TGF-β inhibitors” (Rigel Pharmaceuticals, Inc., priority 2015, dated 2019):
pIC50: −log10 of the molar value.

How the values were obtained:
[1] = system: TGF-β signaling (TGF-β pSMAD, MPC-11); test: AlphaScreen SureFire SMAD3 (p-Ser423/425) assay, inhibition of TGF-β signaling; type: cell-based; details: Mus musculus, MPC-11, inhibition of TGF-β signaling, p-SMAD3 readout
[2] = system: GDF8 signaling (GDF pSMAD, MPC11); test: AlphaScreen SureFire SMAD3 (p-Ser423/425) assay, inhibition of GDF8 signaling; type: cell-based; details: Mus musculus, MPC-11, inhibition of GDF8 signaling, p-SMAD3 readout

| pIC50 [1] | pIC50 [2] | SMILES |
| --- | --- | --- |
| 7.22 | 7.30 | Fc1cccc(-c2nc[nH]c2-c2ccc3cn[nH]c3c2)c1 [Compound 28, 6-(4-(3-Fluorophenyl)-1H-imidazol-5-yl)-1H-indazole] |
| 6.62 | 7.40 | Cc1nc(-c2cc(F)c(F)cc2F)c(-c2ccc3ncsc3c2)[nH]1 [Compound 99, 6-(2-Methyl-4-(2,4,5-trifluorophenyl)-1H-imidazol-5-yl)benzo[d]thiazole] |
| 5.74 | 6.21 | Fc1ccc(-c2nc[nH]c2-c2ccc3nccn3c2)cc1 [Compound 14, 6-(4-(4-Fluorophenyl)-1H-imidazol-5-yl)imidazo[1,2-a]pyridine] |
| 6.22 | 6.80 | Nc1nc(-c2cccc(C(F)(F)F)c2)c(-c2ccc3ncsc3c2)s1 [Compound 176, 5-(benzo[d]thiazol-6-yl)-4-(3-(trifluoromethyl)phenyl)thiazol-2-amine] |
| 6.94 | 7.84 | Cc1cccc(-c2ncsc2-c2ccc3[nH]ncc3c2)c1 [Compound 154, 5-(1H-indazol-5-yl)-4-(m-tolyl)thiazole] |
| 5.11 | 6.08 | Cc1cc(-c2nc(C)n(C)c2-c2ccc3ncsc3c2)ccc1F [Compound 55, 6-(4-(4-Fluoro-3-methylphenyl)-1,2-dimethyl-1H-imidazol-5-yl)benzo[d]thiazole] |
| 6.58 | 7.16 | Cc1cc(-c2ncsc2-c2ccc3ncsc3c2)ccc1F [Compound 165, 6-(4-(4-fluoro-3-methylphenyl)thiazol-5-yl)benzo[d]thiazole] |
| 5.95 | 6.32 | COc1cccc(-c2nc(N)sc2-c2ccc3ncsc3c2)c1 [Compound 186, 5-(benzo[d]thiazol-6-yl)-4-(3-methoxyphenyl)thiazol-2-amine] |
| 5.53 | 6.28 | CCc1nc(-c2cc(C)cc(F)c2)c(-c2ccc3ncsc3c2)[nH]1 [Compound 145, 6-(2-Ethyl-4-(3-fluoro-5-methylphenyl)-1H-imidazol-5-yl)benzo[d]thiazole] |
| 7.22 | 8.00 | Fc1ccc(-c2nc[nH]c2-c2ccc3[nH]ncc3c2)cc1 [Compound 10, 5-(4-(4-Fluorophenyl)-1H-imidazol-5-yl)-1H-indazole] |
| 7.52 | 8.00 | Clc1cccc(-c2nc[nH]c2-c2ccc3cn[nH]c3c2)c1 [Compound 23, 6-(4-(3-Chlorophenyl)-1H-imidazol-5-yl)-1H-indazole] |
| 5.79 | 6.66 | Cc1nc(-c2ccc(F)cc2)c(-c2ccc3ncsc3c2)[nH]1 [Compound 80, 6-(4-(4-Fluorophenyl)-2-methyl-1H-imidazol-5-yl)benzo[d]thiazole] |
| 6.49 | 6.57 | Fc1cccc(-c2nc[nH]c2-c2ccc3ncsc3c2)c1 [Compound 30, 6-(4-(3-Fluorophenyl)-1H-imidazol-5-yl)benzo[d]thiazole] |
| 7.22 | 7.40 | Clc1cccc(-c2nc[nH]c2-c2ccc3ncsc3c2)c1 [Compound 25, 6-(4-(3-Chlorophenyl)-1H-imidazol-5-yl)benzo[d]thiazole] |
| 7.05 | 7.70 | Fc1ccc(-c2nc[nH]c2-c2ccc3[nH]ncc3c2)cc1F [Compound 31, 5-(4-(3,4-Difluorophenyl)-1H-imidazol-5-yl)-1H-indazole] |

Further lines, the molecule ahead of its results:

| SMILES | pIC50 [1] | pIC50 [2] |
| --- | --- | --- |
| CCc1nc(-c2cc(F)cc(Cl)c2)c(-c2ccc3[nH]ncc3c2)[nH]1 [Compound 139, 5-(4-(3-Chloro-5-fluorophenyl)-2-ethyl-1H-imidazol-5-yl)-1H-indazole] | 5.69 | 6.19 |
| CCc1nc(-c2cc(F)cc(Cl)c2)c(-c2ccc3nccnc3c2)[nH]1 [Compound 141, 6-(4-(3-Chloro-5-fluorophenyl)-2-ethyl-1H-imidazol-5-yl)quinoxaline] | 5.54 | 6.18 |
| Cc1cccc(-c2nc(C)n(C)c2-c2ccc3ncn(C)c3c2)c1 [Compound 58, 6-(1,2-Dimethyl-4-(m-tolyl)-1H-imidazol-5-yl)-1-methyl-1H-benzo[d]imidazole] | 5.02 | 6.00 |
| CCc1nc(-c2cccc(C)c2)c(-c2ccc3cn[nH]c3c2)[nH]1 [Compound 114, 6-(2-Ethyl-4-(m-tolyl)-1H-imidazol-5-yl)-1H-indazole] | 5.95 | 6.74 |
| Cc1cc(-c2ncsc2-c2ccc3[nH]ncc3c2)ccc1F [Compound 156, 4-(4-fluoro-3-methylphenyl)-5-(1H-indazol-5-yl)thiazole] | 6.87 | 7.60 |
| Cc1nc(-c2ccc(F)c(C)c2)c(-c2ccc3[nH]ncc3c2)[nH]1 [Compound 71, 5-(4-(4-Fluoro-3-methylphenyl)-2-methyl-1H-imidazol-5-yl)-1H-indazole] | 6.10 | 7.05 |
| Cc1nc(-c2cc(F)c(F)cc2F)c(-c2ccc3ncnn3c2)[nH]1 [Compound 98, 6-(2-Methyl-4-(2,4,5-trifluorophenyl)-1H-imidazol-5-yl)-[1,2,4]triazolo[1,5-a]pyridine] | 6.72 | 7.30 |
| CCc1nc(-c2ccc(F)c(C)c2)c(-c2ccc3nccn3c2)[nH]1 [Compound 110, 6-(2-Ethyl-4-(4-fluoro-3-methylphenyl)-1H-imidazol-5-yl)imidazo[1,2-a]pyridine] | 5.98 | 6.60 |
| Cc1cc(-c2ncn(C)c2-c2ccc3nccnc3c2)ccc1F [Compound 21, 6-(4-(4-Fluoro-3-methylphenyl)-1-methyl-1H-imidazol-5-yl)quinoxaline] | 6.13 | 6.42 |
| Nc1nc(-c2ccc(F)cc2)c(-c2ccc3nccnc3c2)s1 [Compound 170, 4-(4-fluorophenyl)-5-(quinoxalin-6-yl)thiazol-2-amine] | 6.18 | 7.01 |
| Cc1cccc(-c2nc(C)n(C)c2-c2ccc3[nH]ncc3c2)c1 [Compound 56, 5-(1,2-Dimethyl-4-(m-tolyl)-1H-imidazol-5-yl)-1H-indazole] | 5.28 | 6.14 |
| CCc1nc(-c2ccc(F)c(C)c2)c(-c2ccc3[nH]ncc3c2)[nH]1 [Compound 106, 5-(2-Ethyl-4-(4-fluoro-3-methylphenyl)-1H-imidazol-5-yl)-1H-indazole] | 6.04 | 6.82 |
| Cc1cc(-c2nc(C)n(C)c2-c2ccc3cn[nH]c3c2)ccc1F [Compound 53, 6-(4-(4-Fluoro-3-methylphenyl)-1,2-dimethyl-1H-imidazol-5-yl)-1H-indazole] | 5.48 | 6.11 |
| Cn1cnc(-c2ccc(F)c(F)c2)c1-c1ccc2ncn(C)c2c1 [Compound 66, 6-(4-(3,4-Difluorophenyl)-1-methyl-1H-imidazol-5-yl)-1-methyl-1H-benzo[d]imidazole] | 6.01 | 6.28 |
| CCc1nc(-c2cc(C)cc(F)c2)c(-c2ccc3nccn3c2)[nH]1 [Compound 146, 6-(2-Ethyl-4-(3-fluoro-5-methylphenyl)-1H-imidazol-5-yl)imidazo[1,2-a]pyridine] | 5.22 | 6.00 |
| Cc1cccc(-c2ncn(C)c2-c2ccc3[nH]ncc3c2)c1 [Compound 41, 5-(1-Methyl-4-(m-tolyl)-1H-imidazol-5-yl)-1H-indazole] | 7.22 | 7.70 |
| CCc1nc(-c2ccc(F)c(C)c2)c(-c2ccc3cn[nH]c3c2)[nH]1 [Compound 107, 6-(2-Ethyl-4-(4-fluoro-3-methylphenyl)-1H-imidazol-5-yl)-1H-indazole] | 5.73 | 6.47 |
| Cc1cc(-c2nc(N)sc2-c2ccc3cn[nH]c3c2)ccc1F [Compound 174, 4-(4-fluoro-3-methylphenyl)-5-(1H-indazol-6-yl)thiazol-2-amine] | 6.37 | 6.84 |
| Nc1nc(-c2cccc(Cl)c2)c(-c2ccc3[nH]ncc3c2)s1 [Compound 168, 4-(3-chlorophenyl)-5-(1H-indazol-5-yl)thiazol-2-amine] | 6.47 | 7.10 |
| COc1ccc(-c2nc(N)sc2-c2ccc3nccnc3c2)cc1 [Compound 182, 4-(4-methoxyphenyl)-5-(quinoxalin-6-yl)thiazol-2-amine] | 5.95 | 6.45 |
| Cc1nc(-c2ccc(F)c(C)c2)c(-c2ccc3nccnc3c2)[nH]1 [Compound 76, 6-(4-(4-Fluoro-3-methylphenyl)-2-methyl-1H-imidazol-5-yl)quinoxaline] | 5.92 | 6.72 |
| CCc1nc(-c2ccc(F)cc2)c(-c2ccc3nccn3c2)[nH]1 [Compound 123, 6-(2-Ethyl-4-(4-fluorophenyl)-1H-imidazol-5-yl)imidazo[1,2-a]pyridine] | 5.03 | 6.13 |
| COc1ccc(-c2ncn(C)c2-c2ccc3[nH]ncc3c2)cc1 [Compound 69, 5-(4-(4-Methoxyphenyl)-1-methyl-1H-imidazol-5-yl)-1H-indazole] | 5.75 | 6.85 |
| CNc1nc(-c2ccc(F)cc2)c(-c2ccc3nccn3c2)s1 [Compound 188, 4-(4-fluorophenyl)-5-(imidazo[1,2-a]pyridin-6-yl)-N-methylthiazol-2-amine] | 6.44 | 6.11 |
| Cn1cnc(-c2ccc(F)cc2)c1-c1ccc2ncn(C)c2c1 [Compound 50, 6-(4-(4-Fluorophenyl)-1-methyl-1H-imidazol-5-yl)-1-methyl-1H-benzo[d]imidazole] | 5.73 | 5.99 |
| COc1cccc(-c2nc(N)sc2-c2ccc3nccn3c2)c1 [Compound 184, 5-(imidazo[1,2-a]pyridin-6-yl)-4-(3-methoxyphenyl)thiazol-2-amine] | 5.93 | 6.40 |
| Cc1cc(-c2ncsc2-c2ccc3cn[nH]c3c2)ccc1F [Compound 159, 4-(4-fluoro-3-methylphenyl)-5-(1H-indazol-6-yl)thiazole] | 6.77 | 7.44 |
| Cc1cccc(-c2nc(C(C)C)[nH]c2-c2ccc3ncnn3c2)c1 [Compound 152, 6-(2-Isopropyl-4-(m-tolyl)-1H-imidazol-5-yl)-[1,2,4]triazolo[1,5-a]pyridine] | 6.42 | 6.72 |
